Literature values as cited in patent US7429390B2, “Stable pharmaceutical compositions, processes for making the same and methods of their use” (priority 2007, dated 2008).
Like-named read-outs stand apart in the source and are kept apart here.

In the case of `CNC(=C[N+](=O)[O-])NCCSCc1ccc(CN(C)C)o1` [compound of Formula I, N-[2-[[[5-(dimethylamino)methyl-2-furanyl]methyl]thio]ethyl]-N′-methyl-2-nitro-1,1-ethenediamine], the “time to symptomatic relief” value (GERD, after starting therapy with 150 mg b.i.d.) is listed as ≤ 24 h, the “time to symptomatic relief of heartburn” value (endoscopically diagnosed erosive esophagitis, therapy initiation with 150 mg b.i.d.) is listed as ≤ 24 h and the “time in which most patients heal” value (short-term treatment of active duodenal ulcer) is listed as ≤ 4 weeks. The “time in which most patients heal” value (short-term treatment of active, benign gastric ulcer) was ≤ 6 weeks.
